Values quoted from earlier work in PMC3501146 (ACS Chemical Biology, 2012).

Tested on: Lactococcus lactis subsp. cremoris HP
Conditions: indicator strain L. lactis subsp. cremoris HP

Substance: nisin (ITSISLCTPGCKTGALMGCNMKTATCHCSIHVSK; not fully specified; Lantibiotic nisin-A; UniProt P13068 24-57, looked up)
- MIC against L. lactis subsp. cremoris HP (nisin): 0.032 µM
